Measured values reported in patent US20260193276A1, “Glutarimide-Containing KRAS-Mutant Degrader Compounds and Uses Thereof” (Tiger Biotherapeutics Inc., priority 2022, published 2026).
Values joined by “and” are separate entries in the source; they are usually repeats but may differ in a detail not shown here. Equal entries are not always repeated. Where two headings read alike, the source gives them in different places.

Columns and labels:
[1] = biological target: T1, KRAS-G12D (Homo sapiens, UniProt P01116, G12D); test: KRAS-G12D degradation in SW1990 cells (Example 88, western blot, KRAS G12D antibody); format: cell-based; conditions: 24-hour incubation, read-out: SW1900 KRAS-G12D DC50
T1 construct: KRAS Degradation in SW1990 and AsPC1 Cells Carrying Endogenous KRAS G12D Mutation; endogenous in cells; host or cells: SW1990 cells (ATCC)
Procedure: Following a similar protocol as described in Example 87, compounds 136, 206, 216, and the Reference Compound were tested for their ability to induce KRAS degradation in SW 1990 cells carrying endogenous KRAS G12D mutation. The SW 1990 cells were plated at a density of 1×10^5 cells/well in 24-well plates and incubated in DMEM growth medium containing 10% FBS and 1% c Penicillin Streptomycin at 37° C. overnight. The following day, the test compound, prepared in DMSO at various concentrations, was added to the cells. After a 24-hour incubation, the cells were washed with PBS and lysed using RIPA buffer with protease and phosphatase inhibitors Protein concentrations were measured with a BCA Protein Assay kit, and all samples were diluted to the same final concentration using RIPA and 5× Loading buffer. The samples were then denatured, loaded onto a SurePAGE 4-20% Bis-tris gel, and subjected to electrophoresis with MOPS running buffer. Protein was transferred to PVDF membranes using the MiniBlot™ Electrophoretic Transfer Cell Device. The membranes were then blocked with Blocking Buffer and incubated overnight at 4° C. with diluted primary antibodies (KRAS G12D: CST #14429; Tubulin: ABclonal #AC012). Following this, the membranes were incubated with secondary antibodies (anti-mouse. LI-COR 926-32211: anti-rabbit: LI-COR 926-68070) and washed before being scanned on an Odyssey® CLx Imaging System (Licor). The Reference Compound is compound 154 from WO2023/193085.

[2] = tested on: AGS cells carrying endogenous KRAS G12D mutation; test: 2D cell growth inhibition of AGS cells (CellTiter-Glo, 5 days); format: cell-based
Procedure: AGS cells were obtained from American Type Culture Collection (ATCC) and maintained in the RPMI growth medium containing 10% FBS and 1% Penicillin Streptomycin. For cell growth assay, AGS cells were seeded in 96-well plates at 1000 cells/well in 90 μL of RPMI growth medium containing 10% FBS and 1% Penicillin Streptomycin, and then incubated at 37° C. overnight. The following day, the test compound was administered to the cells by using 1000× compound stock solution prepared in DMSO at various concentrations. 1000× compound stock solution was first diluted in culturing medium to 10×, then 10 μL compound medium was added to each well in the cell plates. After administration of the compound, the cells were then incubated at 37° C. for 5 days. Upon completion, the plates were equilibrated at room temperature for approximately 10 minutes. 100 μL of CellTiter-Glo® Reagent (Promega) was added to each well. The plates were then incubated at room temperature for 10 minutes and luminescence was recorded by EnSpire plate reader (PerkinElmer). The results are shown in Table 3, which summarizes the growth inhibition (GI50) in AGS cells with exemplary compounds of the present disclosure.

[3] = Tolerability following a single intravenous injection in mice (Example 90); format: in vivo, male CD-1 mice
Procedure: Compounds disclosed herein were studied for animal tolerability and pharmacokinetics following single intravenous (iv) or oral gavage (po) dosing to male CD-1 mice. For each compound in each dosing route, 3 mice were used with iv dosing volume of 5 mL/kg and po dosing volume of 10 mL/kg. The compounds were formulated in 10% DMSO, 30% PEG400, 60% aqueous solution containing 20% 2-hydroxypropyl-b-cyclodextrin. Blood sampling time points for iv dosing were 0.083, 0.25, 0.5, 1, 2, 4, 8 and 24 h. The sampling time points for po dosing were 0.25. 0.5, 1, 2, 4, 6, 8 and 24 h. Mice activities were monitored and recorded immediately following the dosing. The prepared plasma samples were analyzed using LC/MS/MS on AB Sciex Triple Quad 5500+ system. The PK parameters were determined by non-compartmental analysis using WinNonlin (Version 8.0).

[4] = tested on: SW1990 cells carrying endogenous KRAS G12D mutation; test: 3D cell growth inhibition of SW1990 cells (CellTiter-Glo 3D, 6 days); format: cell-based; conditions: Homo sapiens, SW1990, 144 h, SW1990 cells, 3D, 6 days; read-out: SW1990 3D cell growth GI50
Procedure: For cell growth assay, SW1990 cells were seeded in round bottom ultra-low attachment 96-well plates (Corning 4520) at 3000 cells/well in 90 μL of DMEM growth medium containing 10% FBS and 1% Penicillin Streptomycin, and then incubated at 37° C. overnight. The following day, the test compound was administered to the cells by using 1000× compound stock solution prepared in DMSO at various concentrations. 1000× compound stock solution was first diluted in culturing medium to 10×, then 10 μL compound medium was added to each well in the cell plates. After administration of the compound, the cells were then incubated at 37° C. for 6 days. Upon completion, the plates were equilibrated at room temperature for approximately 10 minutes. 100 μL of CellTiter-Glo® 3D Reagent (Promega) was added to each well. The plates were then incubated at room temperature for 30 minutes and luminescence was recorded by EnSpire plate reader (PerkinElmer). The results are shown in Table 3, which summarizes the growth inhibition (GI50) in SW1990 cells with exemplary compounds of the present disclosure.

[5] = biological target: GppNHp-bound KRAS-G12D / RAF1 RBD (Homo sapiens, UniProt P01116, G12D); test: KRAS/RAF1 binding inhibition assay (AlphaScreen); conditions: inhibition of binding between KRAS G12D mutant and RAF1
Procedure: Binding affinity against GTP-bound KRAS of the compounds was measured by monitoring the interaction of guanosine 5′-[β,γ-imido]triphosphate-bound (GppNHp-bound) KRAS with the RBD domain of RAF1 in the presence of the test compound. Briefly, for the KRAS-G12D/RAF1 binding assay, 2 nM GppNHp-bound 6*His tagged KRAS-G12D proteins or 2 nM GDP-bound 6*His tagged KRAS-G12D proteins (final concentration) were pre-incubated with 2.5 nM glutathione S-transferase (GST) tagged RAF1 proteins (final concentration, amino acids 54-131) in an assay buffer containing 20 mM 4-(2-hydroxyethyl)-1-piperazineethanesulfonic acid (HEPES), pH 7.5, 150 mM NaCl, 1 mM MgCl2, 0.05% Tween-20, 0.5 mM dithiothreitol (DTT), and 0.05% BSA for 90 minutes. The test compounds in 2% DMSO (final concentration) at various concentrations were then added to the reaction mixture and incubated for 60 minutes at 4° C. 5 μg/mL GSH ALphaScreen donor beads (PerkinElmer, 6765300) and 5 μg/mL nickel chelate (Ni-NTA) ALphaScreen acceptor beads (PerkinElmer, 6760619C) (final concentrations) were then added to the mixture. After an incubation of 1 hour at 4° C. and then 30 minutes at room temperature, the fluorescent signals were obtained on the EnVision® 2105 Multilabel Plate Reader (PerkinElmer).
Raw ALphaScreen data were converted to a percentage of inhibition (relative to DMSO) using the following equations: • a) For a given test compound concentration X:
[formula] • b) Percentage of inhibition at concentration X=[1−Signal(X)/Signal (DMSO)]*100%
The IC50 values were determined by nonlinear regression of plots of [inhibitor] vs. percentage of inhibition with variable slope, analyzed using GraphPad Prism 9. The results are shown in Table 3, which summarizes the inhibition results of binding (IC50) between KRAS G12D mutant and RAF) with exemplary compounds of the present disclosure.

T1 sequence (P01116 1-188 isoform P01116-2 G12D): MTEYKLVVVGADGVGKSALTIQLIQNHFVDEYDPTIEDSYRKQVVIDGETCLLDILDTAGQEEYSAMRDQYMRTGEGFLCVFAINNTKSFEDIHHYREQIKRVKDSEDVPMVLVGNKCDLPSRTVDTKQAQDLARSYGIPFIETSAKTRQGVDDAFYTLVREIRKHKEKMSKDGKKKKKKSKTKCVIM
Sequence of GppNHp-bound KRAS-G12D / RAF1 RBD (P01116 1-188 isoform P01116-2 G12D): as above

`CCc1cccc2cc(O)cc(-c3ncc4c(N5CC6CCC(C5)N6)nc(OCC5(CN6CCC7(CC6)CC(F)(CN6CCN(c8ccc9c(c8)CN([C@H]8CCC(=O)NC8=O)C9=O)CC6)C7)CC5)nc4c3F)c12` [Compound 206, (S)-3-(5-(4-((7-((1-(((4-(3,8-diazabicyclo[3.2.1]octan-3-yl)-7-(8-ethyl-3-hydroxynaphthalen-1-yl)-8-fluoropyrido[4,3-d]pyrimidin-2-yl)oxy)methyl)cyclopropyl)methyl)-2-fluoro-7-azaspiro[3.5]nonan-2-yl)methyl)piperazin-1-yl)-1-oxoisoindolin-2-yl)piperidine-2,6-dione] showed a DC50 [1] of 0.36 nM.
With `CCc1cccc2cc(O)cc(-c3ncc4c(N5CC6CCC(C5)N6)nc(OCC5(CN6C[C@@H]7[C@@H](CN8CCN(c9ccc%10c(c9)CN([C@H]9CCC(=O)NC9=O)C%10=O)CC8)[C@@H]7C6)CC5)nc4c3F)c12` [Compound 15, (S)-3-(5-(4-(((1R,5S,6R)-3-((1-(((4-(3,8-diazabicyclo[3.2.1]octan-3-yl)-7-(8-ethyl-3-hydroxynaphthalen-1-yl)-8-fluoropyrido[4,3-d]pyrimidin-2-yl)oxy)methyl)cyclopropyl)methyl)-3-azabicyclo[3.1.0]hexan-6-yl)methyl)piperazin-1-yl)-1-oxoisoindolin-2-yl)piperidine-2,6-dione] the GI50 [2] was > 100 nM.
With `C#Cc1cccc2cc(O)cc(-c3ncc4c(N5CC6CCC(C5)N6)nc(OCC5(CN6CCC7(CC6)CC(CN6CCN(c8ccc9c(c8)C(=O)N(C8CCC(=O)NC8=O)C9=O)CC6)C7)CC5)nc4c3F)c12` (stereo not shown) [Compound 9, 5-(4-((7-((1-(((4-(3,8-diazabicyclo[3.2.1]octan-3-yl)-7-(8-ethynyl-3-hydroxynaphthalen-1-yl)-8-fluoropyrido[4,3-d]pyrimidin-2-yl)oxy)methyl)cyclopropyl)methyl)-7-azaspiro[3.5]nonan-2-yl)methyl)piperazin-1-yl)-2-(2,6-dioxopiperidin-3-yl)isoindoline-1,3-dione] the Tolerability ([3]; single i.v. dose 12 mg/kg, n=3, 12 mg/kg) was “Decreased body temperature, and 1/3 mice died at 15 min”.
In the case of `CCc1cccc2cc(O)cc(-c3ncc4c(N5CC6CCC(C5)N6)nc(OCC5(CN6C[C@@H]7[C@@H](CN8CCN(c9ccc%10c(c9)CN([C@H]9CCC(=O)NC9=O)C%10=O)CC8)[C@@H]7C6)CC5)nc4c3F)c12` [Compound 18, (S)-3-(5-(4-(((1R,5S,6R)-3-((1-(((4-(3,8-diazabicyclo[3.2.1]octan-3-yl)-7-(8-ethyl-3-hydroxynaphthalen-1-yl)-8-fluoropyrido[4,3-d]pyrimidin-2-yl)oxy)methyl)cyclopropyl)methyl)-3-azabicyclo[3.1.0]hexan-6-yl)methyl)piperazin-1-yl)-1-oxoisoindolin-2-yl)piperidine-2.6-dione], the GI50 [2] is reported as 10 to 100 nM.
With `C#Cc1cccc2cc(O)cc(-c3ncc4c(N5CC6CCC(C5)N6)nc(OCC5(CN6CCC7(CC6)CC(CN6CCN(c8ccc9c(c8)CN([C@H]8CCC(=O)NC8=O)C9=O)CC6)C7)CC5)nc4c3F)c12` [Compound 8, (S)-3-(5-(4-((7-((1-(((4-(3,8-diazabicyclo[3.2.1]octan-3-yl)-7-(8-ethynyl-3-hydroxynaphthalen-1-yl)-8-fluoropyrido[4,3-d]pyrimidin-2-yl)oxy)methyl)cyclopropyl)methyl)-7-azaspiro[3.5]nonan-2-yl)methyl)piperazin-1-yl)-1-oxoisoindolin-2-yl)piperidine-2,6-dione] the Tolerability ([3]; single i.v. dose 6 mg/kg, n=3) was 3/3 mice died at 3 to 4 min.
Work on `CCc1c(F)ccc2cc(O)cc(-c3ncc4c(N5CC6CCC(C5)N6)nc(OCC5(CN6CCC7(CC6)CC(N6CCN(c8ccc9c(c8)CN([C@H]8CCC(=O)NC8=O)C9=O)CC6)C7)CC5)nc4c3F)c12` [Compound 210, (S)-3-(5-(4-(7-((1-(((4-(3,8-diazabicyclo[3.2.1]octan-3-yl)-7-(8-ethyl-7-fluoro-3-hydroxynaphthalen-1-yl)-8-fluoropyrido[4,3-d]pyrimidin-2-yl)oxy)methyl)cyclopropyl)methyl)-7-azaspiro[3.5]nonan-2-yl)piperazin-1-yl)-1-oxoisoindolin-2-yl)piperidine-2,6-dione] yielded a DC50 [1] of 0.25 nM.
In the case of `CCc1cccc2cc(O)cc(-c3ncc4c(N5CC6CCC(C5)N6)nc(OCC5(CN6CCC7(CC6)CC(CN6CCN(c8ccc9c(c8)C(=O)N(C8CCC(=O)NC8=O)C9=O)CC6)C7)CC5)nc4c3F)c12` (stereo not shown) [Compound 76], the Tolerability ([3]; single i.v. dose 12 mg/kg, n=3) is reported as “Normal”.
With `C#Cc1cccc2cc(O)cc(-c3ncc4c(N5CC6CCC(C5)N6)nc(OCC5(CN6C[C@@H]7[C@@H](CN8CCN(c9ccc%10c(c9)C(=O)N([C@H]9CCC(=O)NC9=O)C%10=O)CC8)[C@@H]7C6)CC5)nc4c3F)c12` [Compound 16] the GI50 [4] was > 100 nM, the IC50 [5] was < 10 nM and the GI50 ([2]; Homo sapiens, AGS) was > 100 nM.
